Measured values as given in ChEMBL document CHEMBL1131709, “Acyl-CoA: cholesterol acyltransferase inhibitory activity of ginseng sapogenins, produced from the ginseng saponins” (Bioorg Med Chem Lett, 1999).

Target: T1, Sterol O-acyltransferase 1 (Rattus norvegicus, UniProt O70536)
T1 sequence (O70536 whole entry): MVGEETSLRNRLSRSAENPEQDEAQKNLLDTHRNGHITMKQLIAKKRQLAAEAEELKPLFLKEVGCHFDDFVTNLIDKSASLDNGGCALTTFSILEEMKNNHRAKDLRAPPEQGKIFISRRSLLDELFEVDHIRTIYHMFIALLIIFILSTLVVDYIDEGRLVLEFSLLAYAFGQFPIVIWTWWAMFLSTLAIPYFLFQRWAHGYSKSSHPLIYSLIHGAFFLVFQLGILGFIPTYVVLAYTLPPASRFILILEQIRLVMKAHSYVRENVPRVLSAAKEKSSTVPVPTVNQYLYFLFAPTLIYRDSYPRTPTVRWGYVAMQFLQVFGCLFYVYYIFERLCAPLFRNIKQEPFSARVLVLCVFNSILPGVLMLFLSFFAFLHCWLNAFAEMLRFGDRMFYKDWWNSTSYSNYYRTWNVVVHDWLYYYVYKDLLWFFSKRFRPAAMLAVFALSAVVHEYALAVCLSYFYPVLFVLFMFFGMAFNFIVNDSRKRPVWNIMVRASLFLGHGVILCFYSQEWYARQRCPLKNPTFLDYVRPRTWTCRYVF
Test: In vitro inhibitory activity of compound was measured on rat liver Acyl coenzyme A:cholesterol acyltransferase

Compound	IC50 [µM]
CC(C)=CCC[C@@](C)(O)[C@H]1CC[C@]2(C)[C@@H]1[C@H](O)C[C@@H]1[C@@]3(C)CC[C@H](O)C(C)(C)[C@@H]3CC[C@]12C	10
CC1(C)CCC[C@@](C)(C2CC[C@]3(C)C2[C@H](O)CC2[C@@]4(C)CC[C@H](O)C(C)(C)C4[C@@H](O)C[C@]23C)O1 (stereo partly drawn)	28
CC1(C)CCC[C@@](C)(C2CC[C@]3(C)C2[C@H](O)CC2[C@@]4(C)CC[C@H](O)C(C)(C)C4CC[C@]23C)O1 (stereo partly drawn)	25
CC(C)=CCC[C@@](C)(O)[C@H]1CC[C@]2(C)C1[C@H](O)C[C@@H]1[C@@]3(C)CC[C@H](O)C(C)(C)[C@@H]3[C@@H](O)C[C@]12C (stereo partly drawn)	6
CC(C)=CCC[C@](C)(O)[C@H]1CC[C@]2(C)[C@@H]1[C@H](O)C[C@@H]1[C@@]3(C)CC[C@H](O)C(C)(C)[C@@H]3CC[C@]12C	30
CC1(C)CCC[C@](C)(C2CC[C@]3(C)C2[C@H](O)CC2[C@@]4(C)CC[C@H](O)C(C)(C)C4[C@@H](O)C[C@]23C)O1 (stereo partly drawn)	12
CC1(C)CCC[C@](C)(C2CC[C@]3(C)C2[C@H](O)CC2[C@@]4(C)CC[C@H](O)C(C)(C)C4CC[C@]23C)O1 (stereo partly drawn)	55
CC(C)=CCC[C@](C)(O)C1CC[C@]2(C)C1[C@H](O)CC1[C@@]3(C)CC[C@H](O)C(C)(C)C3[C@@H](O)C[C@]12C (stereo partly drawn)	24
